# Test results reported in article PMC7156458, “Synthetic biology based construction of biological activity-related library of fungal decalin-containing diterpenoid pyrones” (Nature Communications, 2020).
# Biological target: Aβ42 (Homo sapiens, UniProt P05067)
# Assay: Th-T (thioflavin-T) assay of Aβ42 aggregation
# Assay type: biochemical
# Details: for Th-T fluorescence of Aβ42 (sheet Fig. 7a), mean of three wells: head suffix _50 (concentration 50); for Th-T assay plate reading, mean of three wells (Supplementary Fig. 47): source data, Ab alone and No Ab as controls; for Th-T fluorescence, mean of three wells: Supplementary Fig. 47 source data
# Aβ42, sequence (P05067 672-713): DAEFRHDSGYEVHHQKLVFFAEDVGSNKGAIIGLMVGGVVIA
compound,measurement,setting,value
C=C1CCC2C(C)(CCC=C(C)C)C(O)CCC2(C)C1Cc1c(OC)oc(CO)c(C(=O)OC)c1=O (stereo not drawn) [Compound 13],"Th-T fluorescence of Aβ42 (sheet Fig. 7a), mean of three wells",reading M73,0.4729
same,"Th-T fluorescence of Aβ42 (sheet Fig. 7a), mean of three wells",reading M74,0.4696
same,"Th-T fluorescence of Aβ42 (sheet Fig. 7a), mean of three wells",reading M75,0.4709
same,"Th-T fluorescence of Aβ42 (sheet Fig. 7a), mean of three wells",reading M76,0.4704
same,"Th-T fluorescence of Aβ42 (sheet Fig. 7a), mean of three wells",reading M77,0.4733
same,"Th-T fluorescence of Aβ42 (sheet Fig. 7a), mean of three wells",reading M78,0.4716
same,"Th-T fluorescence of Aβ42 (sheet Fig. 7a), mean of three wells",reading M79,0.4696
same,"Th-T fluorescence of Aβ42 (sheet Fig. 7a), mean of three wells",reading M80,0.4702
same,"Th-T fluorescence of Aβ42 (sheet Fig. 7a), mean of three wells",reading M81,0.4727
same,"Th-T fluorescence of Aβ42 (sheet Fig. 7a), mean of three wells",reading M82,0.4723
same,"Th-T fluorescence of Aβ42 (sheet Fig. 7a), mean of three wells",reading M83,0.4714
same,"Th-T fluorescence of Aβ42 (sheet Fig. 7a), mean of three wells",reading M84,0.4716
same,"Th-T assay plate reading, mean of three wells (Supplementary Fig. 47)",measurement M1,0.2585
same,"Th-T assay plate reading, mean of three wells (Supplementary Fig. 47)",measurement M2,0.2393
same,"Th-T assay plate reading, mean of three wells (Supplementary Fig. 47)",measurement M3,0.2328
same,"Th-T assay plate reading, mean of three wells (Supplementary Fig. 47)",measurement M4,0.2253
same,"Th-T assay plate reading, mean of three wells (Supplementary Fig. 47)",measurement M5,0.2121
same,"Th-T assay plate reading, mean of three wells (Supplementary Fig. 47)",measurement M6,0.2004
same,"Th-T assay plate reading, mean of three wells (Supplementary Fig. 47)",measurement M7,0.1938
same,"Th-T assay plate reading, mean of three wells (Supplementary Fig. 47)",measurement M8,0.1852
same,"Th-T assay plate reading, mean of three wells (Supplementary Fig. 47)",measurement M9,0.1809
same,"Th-T assay plate reading, mean of three wells (Supplementary Fig. 47)",measurement M10,0.1743
same,"Th-T assay plate reading, mean of three wells (Supplementary Fig. 47)",measurement M11,0.1726
same,"Th-T assay plate reading, mean of three wells (Supplementary Fig. 47)",measurement M12,0.1685
same,"Th-T assay plate reading, mean of three wells (Supplementary Fig. 47)",measurement M13,0.1699
same,"Th-T assay plate reading, mean of three wells (Supplementary Fig. 47)",measurement M14,0.1695
same,"Th-T assay plate reading, mean of three wells (Supplementary Fig. 47)",measurement M15,0.1669
same,"Th-T assay plate reading, mean of three wells (Supplementary Fig. 47)",measurement M16,0.1721
same,"Th-T fluorescence, mean of three wells (Fig. 7a)","reading M107, compound at 10 (head suffix _10)",1.546
same,"Th-T fluorescence, mean of three wells (Fig. 7a)","reading M107, compound at 20 (head suffix _20)",1.033
same,"Th-T fluorescence, mean of three wells (Fig. 7a)","reading M107, compound at 50 (head suffix _50)",0.4755
same,"Th-T fluorescence, mean of three wells (Fig. 7a)","reading M108, compound at 10 (head suffix _10)",1.544
same,"Th-T fluorescence, mean of three wells (Fig. 7a)","reading M108, compound at 20 (head suffix _20)",1.036
same,"Th-T fluorescence, mean of three wells (Fig. 7a)","reading M108, compound at 50 (head suffix _50)",0.4722
same,"Th-T fluorescence, mean of three wells (Fig. 7a)","reading M109, compound at 10 (head suffix _10)",1.548
same,"Th-T fluorescence, mean of three wells (Fig. 7a)","reading M109, compound at 20 (head suffix _20)",1.038
same,"Th-T fluorescence, mean of three wells (Fig. 7a)","reading M109, compound at 50 (head suffix _50)",0.476
same,"Th-T fluorescence, mean of three wells (Fig. 7a)","reading M110, compound at 10 (head suffix _10)",1.549
same,"Th-T fluorescence, mean of three wells (Fig. 7a)","reading M110, compound at 20 (head suffix _20)",1.043
same,"Th-T fluorescence, mean of three wells (Fig. 7a)","reading M110, compound at 50 (head suffix _50)",0.4785
same,"Th-T fluorescence, mean of three wells (Fig. 7a)","reading M111, compound at 10 (head suffix _10)",1.553
same,"Th-T fluorescence, mean of three wells (Fig. 7a)","reading M111, compound at 20 (head suffix _20)",1.041
same,"Th-T fluorescence, mean of three wells (Fig. 7a)","reading M111, compound at 50 (head suffix _50)",0.4751
same,"Th-T fluorescence, mean of three wells (Fig. 7a)","reading M112, compound at 10 (head suffix _10)",1.549
same,"Th-T fluorescence, mean of three wells (Fig. 7a)","reading M112, compound at 20 (head suffix _20)",1.035
same,"Th-T fluorescence, mean of three wells (Fig. 7a)","reading M112, compound at 50 (head suffix _50)",0.4724
same,"Th-T fluorescence, mean of three wells (Fig. 7a)","reading M113, compound at 10 (head suffix _10)",1.549
same,"Th-T fluorescence, mean of three wells (Fig. 7a)","reading M113, compound at 20 (head suffix _20)",1.03
same,"Th-T fluorescence, mean of three wells (Fig. 7a)","reading M113, compound at 50 (head suffix _50)",0.473
same,"Th-T fluorescence, mean of three wells (Fig. 7a)","reading M114, compound at 10 (head suffix _10)",1.5404
same,"Th-T fluorescence, mean of three wells (Fig. 7a)","reading M114, compound at 20 (head suffix _20)",1.03
same,"Th-T fluorescence, mean of three wells (Fig. 7a)","reading M114, compound at 50 (head suffix _50)",0.4728
same,"Th-T fluorescence, mean of three wells (Fig. 7a)","reading M115, compound at 10 (head suffix _10)",1.549
same,"Th-T fluorescence, mean of three wells (Fig. 7a)","reading M115, compound at 20 (head suffix _20)",1.033
same,"Th-T fluorescence, mean of three wells (Fig. 7a)","reading M115, compound at 50 (head suffix _50)",0.477
same,"Th-T fluorescence, mean of three wells (Fig. 7a)","reading M116, compound at 10 (head suffix _10)",1.546
same,"Th-T fluorescence, mean of three wells (Fig. 7a)","reading M116, compound at 20 (head suffix _20)",1.033
same,"Th-T fluorescence, mean of three wells (Fig. 7a)","reading M116, compound at 50 (head suffix _50)",0.4778
same,"Th-T fluorescence, mean of three wells (Fig. 7a)","reading M117, compound at 10 (head suffix _10)",1.5424
same,"Th-T fluorescence, mean of three wells (Fig. 7a)","reading M117, compound at 20 (head suffix _20)",1.029
same,"Th-T fluorescence, mean of three wells (Fig. 7a)","reading M117, compound at 50 (head suffix _50)",0.4747
same,"Th-T fluorescence, mean of three wells (Fig. 7a)","reading M118, compound at 10 (head suffix _10)",1.549
same,"Th-T fluorescence, mean of three wells (Fig. 7a)","reading M118, compound at 20 (head suffix _20)",1.031
same,"Th-T fluorescence, mean of three wells (Fig. 7a)","reading M118, compound at 50 (head suffix _50)",0.4759
same,"Th-T fluorescence, mean of three wells (Fig. 7a)","reading M119, compound at 10 (head suffix _10)",1.551
same,"Th-T fluorescence, mean of three wells (Fig. 7a)","reading M119, compound at 20 (head suffix _20)",1.035
same,"Th-T fluorescence, mean of three wells (Fig. 7a)","reading M119, compound at 50 (head suffix _50)",0.4763
same,"Th-T fluorescence, mean of three wells (Fig. 7a)","reading M120, compound at 10 (head suffix _10)",1.5465
same,"Th-T fluorescence, mean of three wells (Fig. 7a)","reading M120, compound at 20 (head suffix _20)",1.04
same,"Th-T fluorescence, mean of three wells (Fig. 7a)","reading M120, compound at 50 (head suffix _50)",0.4773
same,"Th-T fluorescence, mean of three wells (Fig. 7a)","reading M121, compound at 10 (head suffix _10)",1.546
same,"Th-T fluorescence, mean of three wells (Fig. 7a)","reading M121, compound at 20 (head suffix _20)",1.029
same,"Th-T fluorescence, mean of three wells (Fig. 7a)","reading M121, compound at 50 (head suffix _50)",0.4753
same,"Th-T fluorescence, mean of three wells (Fig. 7a)","reading M122, compound at 10 (head suffix _10)",1.544
same,"Th-T fluorescence, mean of three wells (Fig. 7a)","reading M122, compound at 20 (head suffix _20)",1.028
same,"Th-T fluorescence, mean of three wells (Fig. 7a)","reading M122, compound at 50 (head suffix _50)",0.4755
same,"Th-T fluorescence, mean of three wells (Fig. 7a)","reading M123, compound at 10 (head suffix _10)",1.5409
same,"Th-T fluorescence, mean of three wells (Fig. 7a)","reading M123, compound at 20 (head suffix _20)",1.032
same,"Th-T fluorescence, mean of three wells (Fig. 7a)","reading M123, compound at 50 (head suffix _50)",0.4791
same,"Th-T fluorescence, mean of three wells (Fig. 7a)","reading M124, compound at 10 (head suffix _10)",1.548
same,"Th-T fluorescence, mean of three wells (Fig. 7a)","reading M124, compound at 20 (head suffix _20)",1.037
same,"Th-T fluorescence, mean of three wells (Fig. 7a)","reading M124, compound at 50 (head suffix _50)",0.4785
same,"Th-T fluorescence, mean of three wells (Fig. 7a)","reading M125, compound at 10 (head suffix _10)",1.541
same,"Th-T fluorescence, mean of three wells (Fig. 7a)","reading M125, compound at 20 (head suffix _20)",1.031
same,"Th-T fluorescence, mean of three wells (Fig. 7a)","reading M125, compound at 50 (head suffix _50)",0.4776
same,"Th-T fluorescence, mean of three wells (Fig. 7a)","reading M126, compound at 10 (head suffix _10)",1.541
same,"Th-T fluorescence, mean of three wells (Fig. 7a)","reading M126, compound at 20 (head suffix _20)",1.031
same,"Th-T fluorescence, mean of three wells (Fig. 7a)","reading M126, compound at 50 (head suffix _50)",0.4736
same,"Th-T fluorescence, mean of three wells (Fig. 7a)","reading M127, compound at 10 (head suffix _10)",1.546
same,"Th-T fluorescence, mean of three wells (Fig. 7a)","reading M127, compound at 20 (head suffix _20)",1.033
same,"Th-T fluorescence, mean of three wells (Fig. 7a)","reading M127, compound at 50 (head suffix _50)",0.4763
same,"Th-T fluorescence, mean of three wells (Fig. 7a)","reading M128, compound at 10 (head suffix _10)",1.55
same,"Th-T fluorescence, mean of three wells (Fig. 7a)","reading M128, compound at 20 (head suffix _20)",1.029
same,"Th-T fluorescence, mean of three wells (Fig. 7a)","reading M128, compound at 50 (head suffix _50)",0.4748
same,"Th-T fluorescence, mean of three wells",time-course reading M97,1.044
same,"Th-T fluorescence, mean of three wells",time-course reading M98,1.046
same,"Th-T fluorescence, mean of three wells",time-course reading M99,1.04
same,"Th-T fluorescence, mean of three wells",time-course reading M100,1.04
same,"Th-T fluorescence, mean of three wells",time-course reading M101,1.043
same,"Th-T fluorescence, mean of three wells",time-course reading M102,1.042
same,"Th-T fluorescence, mean of three wells",time-course reading M103,1.041
same,"Th-T fluorescence, mean of three wells",time-course reading M104,1.042
same,"Th-T fluorescence, mean of three wells",time-course reading M105,1.041
same,"Th-T fluorescence, mean of three wells",time-course reading M106,1.044
same,"Th-T fluorescence, mean of three wells",time-course reading M107,1.043
same,"Th-T fluorescence, mean of three wells",time-course reading M108,1.038
same,"Th-T fluorescence, mean of three wells",time-course reading M109,1.039
same,"Th-T fluorescence, mean of three wells",time-course reading M110,1.044
same,"Th-T fluorescence, mean of three wells",time-course reading M111,1.042
same,"Th-T fluorescence, mean of three wells",time-course reading M112,1.039
same,"Th-T fluorescence, mean of three wells",time-course reading M113,1.042
same,"Th-T fluorescence, mean of three wells",time-course reading M114,1.037
same,"Th-T fluorescence, mean of three wells",time-course reading M115,1.041
same,"Th-T fluorescence, mean of three wells",time-course reading M116,1.037
